From patent US20100056468A1, “Pyrimidine Derivatives As Anticancer Agents” (University Health Network, priority 2007, published 2010)

What was measured:
[1] = biological target: Mt ODCase (Methanothermobacter thermautotrophicus, UniProt O26232); assay: biochemical; parameters: species or system M. thermoautotrophicum; settings: reversible inhibition, 20 nM enzyme, 40 μM OMP
[2] = biological target: T1, Hs ODCase (Homo sapiens, UniProt P11172); assay: Reversible (competitive) inhibition of ODCase, calorimetric assay; type: biochemical; settings: 37° C., 60 nM enzyme
T1 construct: ODCase region of human UMP synthase
Procedure: The stock solution of enzyme (60 μM) was prepared in 50 mM Tris (pH 7.5), 20 mM DTT, and 40 mM NaCl and incubated overnight at 4° C. This stock sample was later used to prepare the enzyme assay samples. The enzyme was kept on ice during the experiment. The enzyme stock was diluted with 50 mM Tris buffer containing 1 mM DTT to prepare 60 nM enzyme assay samples. The final substrate concentration was 15 or 20 μM. Concentrated samples of inhibitors were prepared in 50 mM Tris (pH 7.5). The volumes and concentrations of the enzyme and substrate were the same as described above for the reaction without inhibitor. All three compounds were tested in a competitive inhibition assay where enzyme is mixed with the inhibitor and the reaction is initiated by the substrate addition. Assay samples were prepared in 50 mM Tris, 1 mM DTT. The final assay concentration of 5-F-6-azido-UMP was 0, 0.25, 0.50, 0.75, 1.0 μM. The assay samples were prepared with 0, 0.2, 0.4, 1.0, and 2.0 μM and 0, 50, 100, 250, 500 μM 5-fluoro-6-ethyl-UMP.
The initial data analyses were done in Origin 7.0 software. The raw data representing the heat change over time were converted to the reaction rate at each recorded time point. A Michaelis-Menten plot was constructed and the data were fitted to MM equation (Eq. 1) to determine the kinetic parameters KM and kcat. The molar enthalpy (ΔH) was also automatically calculated.
To calculate the Ki the data were exported to GraFit 5.0 program. The data points were fitted to the competitive inhibition equation (Eq. 2) and the Ki was estimated from the Dixon plot.

[3] = tested on: leukemias (OCI-AML-1, OCI-AML-2, SKW3), lymphomas (OCI-Ly-7), multiple myeloma (OCI-My-2); assay: In vitro cell proliferation assay (WST.1), summary over cell lines; type: cell-based; settings: Homo sapiens; OCI-AML-1, OCI-AML-2, SKW3, OCI-Ly-7, OCI-My-2; read-out: IC50 values, range over cell lines
Procedure: (§1) These cell lines were grown in Iscove's MDM supplemented with 5% fetal calf serum (FCS), 50 μM 2-mercaptoethanol, 100 μg/ml penicillin, and 100 μg/ml streptomycin. Cell lines growing in suspension were maintained at 0.5-1.5×10^6 cell/ml, while adherent cell lines were maintained at subconfluent densities.
(§2) Cell lines were seeded in triplicate at 10^4 cells/100 μl in 96-well plates. Peripheral blood mononuclear cells were seeded in triplicate at 10^5 cells/100 μl in 96-well plate. Different test compounds were added immediately at final concentrations ranging between 0 to 100 μM. All compounds were dissolved in sterile deionized water, so water was added to the control wells. On day 3, WST.1 assay (Roche) was used to measure the effect of different test compounds on cell growth. WST.1 assay is a calorimetric assay for the nonradioactive quantification of cell proliferation, cell viability, and cytotoxicity. The assay was performed according to manufacturer's instructions (Roche). It relies on the cleavage by cellular enzymes of WST.1 (water soluble tetrazolium salt: 4-[3-(4-iodophenyl)-2-(4-nitrophenyl)-2H-5-tetrazolio]-1,3-benzene disulfonate) to formazan. The amount of formazan dye formed correlates to the number of metabolically active cells in the culture and is readily read in an ELISA microplate reader using an absorbance wavelength of 440 nm. These OD values are plotted against concentrations of different compounds and IC50 is determined for each compound.

[4] = tested on: LOX; assay: In vitro cell proliferation assay (WST.1, Table 5); type: cell-based, human; settings: day 3
Procedure: as §1, §2

[5] = tested on: OCI-AML-1; assay: Apoptosis assay (Annexin V/PI, FACS); type: cell-based, human; settings: OCI-AML-1, 4 μM
Procedure: (§3) Cells were seeded in duplicate at 10^5 cells/ml in 24-well plates. 4 μM final concentration of compounds Io, In or Iag (Table 2) were added immediately after seeding. Water was added to the control wells. Every 24 hr, cells were harvested, washed in PBS, and stained with Annexin V/propidium iodide (PI) (1:200) using Annexin-V-FLUOS staining kit (Roche) according to the manufacturer's instructions. Annexin V is a Ca^2+− dependent phospholipids-binding protein with high affinity for phosphatidylserine (PS). It can be used as a probe to detect PS exposure on the outer leaflet of the cell membrane and is therefore widely used for detection of apoptotic cells. Unlike apoptotic cells (Annexin V^+/PI^−), necrotic cells are Annexin V^+PI^+. PI is a DNA stain. FACS was used to analyze the staining.
(§4) To determine whether reduced expansion of different cell lines in culture with Io, In, and Iag could be attributed to a decrease in cell survival, we stained treated and control cells with Annexin V and PI. Four cell lines (OCI-AML-1, OCI-Ly7, OCI-My2, and SKW3) were cultured in presence of 4 μM of […] for 4 days. Cells were harvested daily and Annexin V/PI staining was done by FACS. Our results clearly show an increase in the percentage of apoptotic (annexin V^+PI^−) cells cultured with Io, In, or Iag compared to the control cells (Table 6). Increased cell death was first observed on day 2 of culture.

[6] = tested on: OCI-My-2; assay: Apoptosis assay (Annexin V/PI, FACS); type: cell-based, human; settings: OCI-My-2, 4 μM
Procedure: as §3, §4

[7] = tested on: SKW3; assay: Apoptosis assay (Annexin V/PI, FACS); type: cell-based, human; settings: SKW3, 4 μM
Procedure: as §3, §4

[8] = tested on: OCI-Ly-7; assay: Apoptosis assay (Annexin V/PI, FACS); type: cell-based, human; settings: OCI-Ly-7, 4 μM
Procedure: as §3, §4

[9] = tested on: OCI-AML-1; assay: In vitro cell proliferation assay (WST.1, Table 5); type: cell-based; settings: Homo sapiens, 72 h; OCI-AML-1, day 3
Procedure: as §1, §2

[10] = tested on: PC3; assay: In vitro cell proliferation assay (WST.1, Table 5); type: cell-based; settings: Homo sapiens, PC-3, 72 h; PC3, day 3
Procedure: as §1, §2

[11] = tested on: OCI-My-2; assay: In vitro cell proliferation assay (WST.1, Table 5); type: cell-based; settings: Homo sapiens, 72 h; OCI-My-2, day 3
Procedure: as §1, §2

[12] = tested on: SKW3; assay: In vitro cell proliferation assay (WST.1, Table 5); type: cell-based; settings: Homo sapiens, 72 h; SKW3, day 3
Procedure: as §1, §2

[13] = tested on: MCF7; assay: In vitro cell proliferation assay (WST.1, Table 5); type: cell-based; settings: Homo sapiens, 72 h; MCF7, day 3
Procedure: as §1, §2

[14] = tested on: MDA468; assay: In vitro cell proliferation assay (WST.1, Table 5); type: cell-based; settings: Homo sapiens, 72 h; MDA468, day 3
Procedure: as §1, §2

[15] = tested on: OCI-AML-2; assay: In vitro cell proliferation assay (WST.1, Table 5); type: cell-based; settings: Homo sapiens, OCI-AML2, 72 h; OCI-AML-2, day 3
Procedure: as §1, §2

[16] = tested on: OCI-Ly-7; assay: In vitro cell proliferation assay (WST.1, Table 5); type: cell-based; settings: Homo sapiens, OCI-Ly7, 72 h; OCI-Ly-7, day 3
Procedure: as §1, §2

[17] = tested on: T47D; assay: In vitro cell proliferation assay (WST.1, Table 5); type: cell-based; settings: Homo sapiens, 72 h, day 3
Procedure: as §1, §2

[18] = tested on: COLO205; assay: In vitro cell proliferation assay (WST.1, Table 5); type: cell-based; settings: Homo sapiens, COLO 205, 72 h; COLO205, day 3
Procedure: as §1, §2

[19] = tested on: OCVR4; assay: In vitro cell proliferation assay (WST.1, Table 5); type: cell-based; settings: Homo sapiens, 72 h; OCVR4, day 3
Procedure: as §1, §2

[20] = tested on: SNB19; assay: In vitro cell proliferation assay (WST.1, Table 5); type: cell-based; settings: Homo sapiens, SNB-19, 72 h; SNB19, day 3
Procedure: as §1, §2

[21] = tested on: CCD967; assay: In vitro cell proliferation assay (WST.1, Table 5); type: cell-based; settings: Homo sapiens, CCD-967, 72 h; CCD967 normal skin line, day 3
Procedure: as §1, §2

[22] = tested on: HS58T; assay: In vitro cell proliferation assay (WST.1, Table 5); type: cell-based; settings: Homo sapiens, 72 h, day 3
Procedure: as §1, §2

IC50 [15]	SMILES	Ki [1]	Ki [2]	IC50 [3]	IC50 ([4]; Homo sapiens, 72 h)	Fold increase in % of apoptotic (annexinV+PI−) cells: drug-treated vs.control ([5]; day 1)	Fold increase in % of apoptotic (annexinV+PI−) cells: drug-treated vs.control ([5]; day 2)	Fold increase in % of apoptotic (annexinV+PI−) cells: drug-treated vs.control ([5]; day 3)	Fold increase in % of apoptotic (annexinV+PI−) cells: drug-treated vs.control ([6]; day 1)	Fold increase in % of apoptotic (annexinV+PI−) cells: drug-treated vs.control ([6]; day 2)	Fold increase in % of apoptotic (annexinV+PI−) cells: drug-treated vs.control ([6]; day 3)	Fold increase in % of apoptotic (annexinV+PI−) cells: drug-treated vs.control ([7]; day 1)	Fold increase in % of apoptotic (annexinV+PI−) cells: drug-treated vs.control ([7]; day 2)	IC50 [9]	IC50 [10]	IC50 [11]	IC50 [12]	IC50 [13]	IC50 [14]	IC50 [16]	further results
–	O=c1[nH]c(=O)n([C@@H]2O[C@H](COP(=O)(O)O)[C@@H](O)[C@H]2O)cc1F [Compound 5-F-UMP, 5-F-UMP, reference compound]	646 ± 15 µM	97.8 ± 5.9 µM	–	–	–	–	–	–	–	–	–	–	–	–	–	–	–	–	–	–
0.7 µM	O=Cc1c(F)c(=O)[nH]c(=O)n1C1OC(CO)C(O)C1O (stereo not shown) [Iag]	–	–	0.3 to 2.1 µM	0.3 µM	1.4 fold	5.3 fold	14 fold	0.77 fold	1.7 fold	2.7 fold	1.2 fold	4.6 fold	0.3 µM	> 100 µM	0.4 µM	0.3 µM	23.7 µM	1.9 µM	0.6 µM	IC50 [4]: 0.4 µM; Fold increase in % of apoptotic (annexinV+PI−) cells: drug-treated vs.control ([7]; day 3): 5.2 fold; Fold increase in % of apoptotic (annexinV+PI−) cells: drug-treated vs.control ([8]; day 1): 0.82 fold; Fold increase in % of apoptotic (annexinV+PI−) cells: drug-treated vs.control ([8]; day 2): 2.1 fold; Fold increase in % of apoptotic (annexinV+PI−) cells: drug-treated vs.control ([8]; day 3): 6.2 fold
–	CCc1c(F)c(=O)[nH]c(=O)n1C1OC(CO)C(O)C1O (stereo not shown) [Iah]	29 ± 0.3 µM	0.353 ± 0.01 µM	0.3 to 2.1 µM	4.5 µM	–	–	–	–	–	–	–	–	2.1 µM	> 100 µM	1.4 µM	1.2 µM	31.4 µM	5.3 µM	1.9 µM	–
0.9 µM	Nc1c(F)c(=O)[nH]c(=O)n1[C@@H]1O[C@H](CO)[C@@H](O)[C@H]1O [In, 5-Fluoro-6-amino uridine]	–	16.6 ± 0.7 µM	0.3 to 2.1 µM	3.4 µM	–	–	–	–	–	–	–	–	0.7 µM	> 4 µM	0.9 µM	0.6 µM	1.4 µM	2.6 µM	1.3 µM	IC50 [17]: > 4 µM; IC50 [18]: 3.3 µM; IC50 [19]: 2 µM; IC50 [20]: > 4 µM; IC50 [21]: > 4 µM; IC50 [22]: > 4 µM

SMILES	IC50 [15]	Ki [1]	Ki [2]	IC50 [3]	IC50 ([4]; Homo sapiens, 72 h)	Fold increase in % of apoptotic (annexinV+PI−) cells: drug-treated vs.control ([5]; day 1)	Fold increase in % of apoptotic (annexinV+PI−) cells: drug-treated vs.control ([5]; day 2)	Fold increase in % of apoptotic (annexinV+PI−) cells: drug-treated vs.control ([5]; day 3)	Fold increase in % of apoptotic (annexinV+PI−) cells: drug-treated vs.control ([6]; day 1)	Fold increase in % of apoptotic (annexinV+PI−) cells: drug-treated vs.control ([6]; day 2)	Fold increase in % of apoptotic (annexinV+PI−) cells: drug-treated vs.control ([6]; day 3)	Fold increase in % of apoptotic (annexinV+PI−) cells: drug-treated vs.control ([7]; day 1)	Fold increase in % of apoptotic (annexinV+PI−) cells: drug-treated vs.control ([7]; day 2)	IC50 [9]	IC50 [10]	IC50 [11]	IC50 [12]	IC50 [13]	IC50 [14]	IC50 [16]	further results
[N-]=[N+]=Nc1c(F)c(=O)[nH]c(=O)n1[C@@H]1O[C@H](CO)[C@@H](O)[C@H]1O [Io, 5-fluoro-6-azido uridine]	0.7 µM	0.357 ± 0.028 µM	–	0.3 to 2.1 µM	2.3 µM	1.5 fold	9.3 fold	16 fold	0.86 fold	1.9 fold	2.8 fold	1.2 fold	4.7 fold	0.6 µM	> 4 µM	0.6 µM	0.4 µM	1 µM	1.8 µM	0.7 µM	Fold increase in % of apoptotic (annexinV+PI−) cells: drug-treated vs.control ([7]; day 3): 4.4 fold; Fold increase in % of apoptotic (annexinV+PI−) cells: drug-treated vs.control ([8]; day 1): 0.74 fold; Fold increase in % of apoptotic (annexinV+PI−) cells: drug-treated vs.control ([8]; day 2): 1.9 fold; Fold increase in % of apoptotic (annexinV+PI−) cells: drug-treated vs.control ([8]; day 3): 6.6 fold; IC50 [17]: > 4 µM; IC50 [18]: 3.8 µM; IC50 [19]: 1.5 µM; IC50 [20]: > 4 µM; IC50 [21]: > 4 µM; IC50 [22]: > 4 µM
